From a melting point compilation (Tetko et al.; mined from patent text by program, amines drawn as free bases though some values may be those of a salt)

With `COc1cc(OC)cc(N2CCN(CCC3CN(C)C(=O)O3)CC2)c1` (stereo not given) the melting point was 85 to 87 °C.
Work on `COCC1C(=O)C(C)(C)C(=O)N1c1ccc(C#N)c(Cl)c1` (stereo not given) yielded a melting point of 98 to 99 °C.
Work on `O=C1SCC(O)=C1Cc1ccc2ccccc2c1Br` yielded a melting point of 205 to 206 °C.
Work on `CC(=O)OCCn1ccc(=O)c(O)c1Cc1ccc(C)cc1` yielded a melting point of 205 to 206 °C.
Work on `COCc1cc(-n2cc(-c3ccc(-c4ccco4)cc3)c(C(F)(F)F)n2)ccc1S(C)(=O)=O` yielded a melting point of 142 to 143 °C.
`CCOC(=O)C1Cc2c([nH]c3ccccc23)CN1C(=S)SC` (stereo not given) showed a melting point of 139 to 141 °C.
Molecule `O=c1[nH]cc(Cl)c2ccc(CO)cc12` has a melting point of 266 to 268 °C.
With `CN1CC[C@@H](c2c(O)cc(O)c3c(=O)cc(-c4ccc(N)cc4Br)oc23)[C@@H]1CO` the melting point was 208 °C.
Molecule `CSC(Oc1cc2cc(Br)cnc2cc1C)C(=O)NC(C)(C)C` (stereo not given) has a melting point of 132 to 134 °C.
For `Cc1ccc(-c2cccc(/C=C/C(=O)O)c2)cc1`, the melting point was 186 to 187 °C.
With `C=CCc1c(Cl)cc2c(c1O)OC(COS(=O)(=O)c1ccc(C)cc1)C2` (stereo not given) the melting point was 128 to 131 °C.
With `Cc1cc(-c2nc3cccnn3c2-c2ccnc(NC(=O)NC(C)(C)C)c2)ccc1F` the melting point was 234 to 235 °C.
For `Cc1ccc(-c2cc3ccc4ccccc4c3o2)cc1`, the melting point was 97 to 100 °C.
In the case of `Cc1c(COC(=O)N(c2ccccc2)c2ccccc2)cccc1OCC(=O)O`, the melting point is reported as 180 to 181 °C.
`CC(C)COc1ccc(S(C)(=O)=O)cc1C(=O)O` gave a melting point of 149 to 153 °C.
In the case of `COc1cc(C2COc3c(C)c(C)c(NC(=O)CC(C)(C)C)c(C)c32)ccc1C(C)C` (stereo not given), the melting point is reported as 170 to 171 °C.
For `COc1cc(COc2nn(-c3ccccc3)cc2C=C(C#N)C#N)ccc1OCc1nc(-c2ccco2)oc1C`, the melting point was 190 to 191 °C.
`COc1ccc([C@H]2SC(c3ccccc3)=C(C)N(CCN(C)C)C(=O)[C@H]2OC(C)=O)cc1` gave a melting point of 90 to 92 °C.
In the case of `COc1ccc2c(c1)c(C(C)C(=O)O)cc(=O)n2-c1ccc(Cl)cc1` (stereo not given), the melting point is reported as 177 to 178 °C.
In the case of `COC(=O)C1CC2c3cccc4[nH]cc(c34)CC2N(C(=O)C2CC2)C1` (stereo not given), the melting point is reported as 276 to 278 °C.
`CNC(=O)c1cc2c(nc(C)n2C)c2c1CCC(c1ccccc1)N2` (stereo not given) showed a melting point of 259 °C.
In the case of `O=[N+]([O-])C=C1SCCN1Cc1ccco1`, the melting point is reported as 190 to 192 °C.
With `O=C(c1cccs1)N(CCCCn1ccnc1)C1=Nc2cccc3cccc1c23` the melting point was 76 to 80 °C.
With `CCCc1nn(C)c2c(=O)[nH]c(-c3cc4cccc(OCC)c4o3)nc12` the melting point was 227 to 229 °C.
Work on `CCOC(=O)c1c(NCCc2ccccc2)n[nH]c1C` yielded a melting point of 138 to 139 °C.
Molecule `COc1cccc(S(=O)(=O)Nc2nccnc2OC)c1` has a melting point of 133 to 134 °C.
Molecule `O=C(Nc1cccc(C(F)(F)F)c1)c1ccccc1NCc1ccc(=O)[nH]c1` has a melting point of 171 to 172 °C.
`O=C1N(Cc2ccc(C(F)(F)F)o2)c2c(Cl)cccc2C12COc1cc3c(cc12)CCO3` (stereo not given) gave a melting point of 210 to 211 °C.
Work on `CC(=O)OC1CSC(Oc2cnccc2C#N)C(OC(C)=O)C1OC(C)=O` (stereo not given) yielded a melting point of 167 °C.
Molecule `O=C1Nc2cc(CN3CCN(c4ccc(C(=O)N5CCCC5)cc4)CC3)cnc2N2CCC[C@@H]12` has a melting point of 121 °C.
With `CCOC(=O)c1c2n(c3ccc(F)cc3c1=O)CCS2` the melting point was 225 to 226 °C.
`OCCCOc1ccc(Cl)c(Cl)c1` showed a melting point of 40 to 43 °C.
For `CC(=O)Nc1cccc(Sc2c(Cc3cccc4ccccc34)sc3c2c(=O)n(C)c(=O)n3CC(C)C)c1`, the melting point was 173 to 174 °C.
In the case of `O=C(NCc1ccccn1)c1cc(-n2cnn(Cc3ccc(F)cc3)c2=O)n[nH]1`, the melting point is reported as 224 to 225 °C.
Work on `COC(=O)CCC(=O)c1ccc(C)cc1O` yielded a melting point of 61 to 63 °C.
Molecule `COc1cccc(OC)c1C(=O)Nc1nc[nH]n1` has a melting point of 191 to 193 °C.
In the case of `COc1ccc(-n2c(-c3ccc(Br)cc3)nc3c4ccccc4c4ccccc4c32)cc1`, the melting point is reported as 239 °C.
For `Cc1cc(CCCCCOc2c(Cl)cc(C3=NCCC3)cc2Cl)on1`, the melting point was 57 to 59 °C.
In the case of `CC(=O)NC[C@H]1CN(c2ccc(N3CCC(O)(COS(C)(=O)=O)CC3)c(F)c2)C(=O)O1`, the melting point is reported as 136 to 138 °C.
With `CC(C)C(=O)c1ccc(N2CCN(C)CC2)cc1` the melting point was 74 to 76 °C.
Molecule `Cc1c(F)c(F)cc2c(=O)c(C(=O)O)cn(-c3cc(O)c(F)cc3F)c12` has a melting point of 270 to 278 °C.
Molecule `CN(CCCN1C(=O)CSC1c1cc(C(C)(C)C)c(O)c(C(C)(C)C)c1)CCOc1ccc2c(c1)OCO2` (stereo not given) has a melting point of 70 to 71 °C.
`CNC(=O)N1N=C(c2ccc(N)cc2)c2cc3c(cc2CC1CO)OCO3` (stereo not given) showed a melting point of 136 to 138 °C.
`NC(=O)Cc1ccc(Nc2nc(OCC3CCCCC3)c3nc[nH]c3n2)cc1` gave a melting point of 234 °C.
Molecule `Nc1c(C(=O)c2ccc(Cl)cc2)oc2ccccc12` has a melting point of 202 to 204 °C.
In the case of `O=C(Nc1cccc(OC(F)(F)F)c1)NC1N=C(c2ccccc2F)c2ccccc2N(CC(=O)N2CC3CCC(CC3)C2)C1=O` (racemic), the melting point is reported as 156 to 164 °C.
In the case of `O=C(O)Cc1cccc(Cc2nc3c(F)c(F)cc(F)c3s2)c1Cl`, the melting point is reported as 156 to 158 °C.
For `Nc1ncn(C2OC(CO)C(O)C2O)c2nc(=O)sc1-2` (stereo not given), the melting point was 132 to 134 °C.
Work on `O=C1c2ccc(Br)cc2C(=O)N1c1ccc(Cl)cc1C(F)(F)F` yielded a melting point of 174 to 175 °C.
`CCOc1cc(Oc2ccc(C(F)(F)F)cn2)ccc1CCCOc1nn(CC)cc1CC(=O)O` showed a melting point of 82 to 83 °C.
`CCOc1ncc(N)cc1C(=O)O` gave a melting point of 260 to 262 °C.
In the case of `Cc1cc(-c2cc(COS(C)(=O)=O)c(=O)n(CC=Cc3ccc(Cl)cc3)n2)ccc1F`, the melting point is reported as 118 to 120 °C.
With `O=C1CN2C(=N1)NCc1c(Cl)cccc12` the melting point was 127 to 129 °C.
Work on `COC(=O)c1ccc(COc2cccc(-c3c(C(=O)c4ccccc4)cnc4c(C(F)(F)F)cccc34)c2)c(OC)c1` yielded a melting point of 60 to 63 °C.
For `Cn1c(-c2ccc(C(=O)O)cc2)ccc1-c1ccc(C(F)(F)F)cc1`, the melting point was 260 to 261 °C.
Work on `O=C(Nc1ccc2ccc(Oc3ccccc3)nc2n1)C1CC1` yielded a melting point of 190 °C.
For `CCN(CC)c1ccc(/C=C(\C)c2ccc3c(c2)C(C)(C)CCC3(C)C)cc1`, the melting point was 89 to 90 °C.
Molecule `CNc1nc(-c2cccc(C(=O)Nc3cccnc3)c2)c2cc(OC)c(OC)cc2n1` has a melting point of 238 to 240 °C.
In the case of `CCCc1ccnc2c(=O)[nH]c(-c3cc(N)ccc3OCC)nc12`, the melting point is reported as 156 to 158 °C.
With `O=C1c2c(Cl)cccc2-n2cnc(-c3noc(CN4CCCCC4)n3)c2[C@@H]2CCN12` the melting point was 177 to 179 °C.
Molecule `O=C1c2cccc3cccc(c23)C(=O)N1CCN1CCC(c2c[nH]c3ccc(F)cc23)CC1` has a melting point of 235 °C.
Molecule `CC(C)C(=O)Nc1nn(C)c2c1sc1c(Cl)cccc12` has a melting point of 218 to 219 °C.
`C[Si](C)(Cn1cncn1)c1ccc(-c2ccccc2)cc1` gave a melting point of 79 to 86 °C.
Work on `CCCCCCCCCCCCCC(O)c1nc2ncccc2o1` (stereo not given) yielded a melting point of 52 to 54 °C.
For `CCC(=O)c1cc(-c2cccc(O)c2)cs1`, the melting point was 112 °C.
Molecule `O=C(CCC1CCCC1)Nc1ccc(N2CCC(NC[C@H](O)COc3cccc4[nH]c(=O)[nH]c34)CC2)cc1` has a melting point of 140 to 144 °C.
Molecule `CCOC(=O)c1cnc2ccc(OCC)nc2c1Nc1ccc(Oc2ccccn2)cc1` has a melting point of 148 to 151 °C.
Work on `COc1ccc(-c2[nH]cnc2-c2cc(OC)c(N)c(OC)c2)cc1F` yielded a melting point of 101 to 103 °C.
In the case of `CCOc1cc(OCC)c2ccccc2c1O`, the melting point is reported as 83 to 84 °C.
For `CCOC(=O)c1ccc2c(c1)sc1ccccc12`, the melting point was 74 to 78 °C.
Molecule `Cc1cc(Nc2cncc(Nc3ccc(Cl)c(C(=O)N(C)C)c3)n2)n[nH]1` has a melting point of 213 to 215 °C.
With `O=C(NCCc1ccccc1Cl)c1c(Cl)ccc2nc(N3CC[C@H](NCCO)C3)ccc12` the melting point was 170 to 172 °C.
Work on `COC1(OC)SC(c2ccncc2)=C(C)NC1=O` yielded a melting point of 154 to 155 °C.
For `NCCc1ccc(OCc2ccccc2)c(NC(N)=O)c1`, the melting point was 176 to 180 °C.
Work on `O=C(N1CCC(N2CCOCC2)CC1)C12CC(c3ccccc31)c1ccccc12` yielded a melting point of 179 to 180 °C.
In the case of `Nc1cc(-c2ccoc2)ccc1Nc1cccc(-n2cccc2)c1`, the melting point is reported as 194 to 195 °C.
In the case of `CCCCN1C(=O)NC(=Cc2cccs2)C1=O`, the melting point is reported as 140 °C.
Molecule `CC(C)(C)OC(=O)[C@H](Cc1ccc(O)cc1)NC(=O)C12CC3CC(C(=O)N1Cc1ccccc1)C2C3` (stereo not given in full) has a melting point of 298 to 300 °C.
`Fc1ccc(-c2nc3n(c2-c2ccnc(Nc4ccccc4)c2)CCS3)cc1` showed a melting point of 299 °C.
With `CCCCCCCCCCCCCCCCCCNC(=O)OCC(CN)COC` (stereo not given) the melting point was 84 to 85 °C.
`CCCn1c(=O)c2nc([C@@H]3CCC[C@H]3c3ccccc3)[nH]c2n(CCC)c1=O` (relative stereo) showed a melting point of 152 to 153 °C.
`Cc1cc(C(=O)c2ccc(F)c(C)c2)ccc1F` gave a melting point of 128 to 130 °C.
Molecule `Cc1nc2cccc3n(CCCNS(C)(=O)=O)c(=O)c1n23` has a melting point of 184 to 185 °C.
For `COC1CC2(C)C(CCC3C4CC=C(C(C)=O)C4(C)CCC32)CC1O` (stereo not given), the melting point was 183 to 187 °C.
`COC(=O)C1C(=O)CC(=O)CC1C` (stereo not given) showed a melting point of 122 to 123 °C.
In the case of `CCOC(=O)C(C)(CCCN(C)CCc1ccc(OC)c(OC)c1)c1ccc(OC)c(OC)c1` (stereo not given), the melting point is reported as 118 to 121 °C.
`COc1nc(Cl)nc(Nc2ccc(OC(=O)C(C)(C)Br)cc2)n1` gave a melting point of 107 to 108 °C.
Work on `Cc1oc(-c2ccco2)nc1COc1ccc(COc2nn(-c3ccccc3)cc2C#N)cc1` yielded a melting point of 158 to 159 °C.
`O=C(O)COCC(Cc1ccccc1)NC(=O)OCc1ccccc1` (stereo not given) showed a melting point of 96 to 100 °C.
For `O=C(C=C(c1ccccc1Cl)n1cncn1)c1ccccc1`, the melting point was 79 to 81 °C.
Work on `O=c1ccc(C(F)(F)F)cn1-c1ccc(NCCCl)cc1Cl` yielded a melting point of 160 to 162 °C.
`COc1cc(Nc2nc3cccc(-c4ccc5[nH]cnc5c4)c3o2)cc(OC)c1OC` showed a melting point of 150 to 156 °C.
Work on `CCCCCCc1ccc(C(=O)N2CCOCC2)cc1[N+](=O)[O-]` yielded a melting point of 68.5 to 71.5 °C.
`CCOC(=O)c1cn(C2CC2)c2c(F)c(F)c(F)c(N)c2c1=O` gave a melting point of 223 to 225 °C.
With `CCCCCCC(=Cc1ccccc1)C(O)Cc1nc(C)c(C)nc1C` (stereo not given) the melting point was 61 to 62 °C.
`CCOC(=O)C1CC(=O)c2nc(C)n(C)c2C1` (stereo not given) gave a melting point of 148 to 150 °C.
In the case of `Cc1ccc(Nc2ccccc2[N+](=O)[O-])c(C#N)c1`, the melting point is reported as 135 to 139 °C.
`COc1c(C)cc(Cc2ccc3c(c2)OCO3)cc1C` gave a melting point of 49 °C.
`CCCCc1cn(-c2c(Cl)cccc2Cl)c(=O)n1Cc1ccc(-c2ccccc2-c2nnn[nH]2)nc1` showed a melting point of 212 °C.
With `Cc1oc2ccc(N)cc2c(=O)c1C` the melting point was 202 to 204 °C.
